Drawing on a melting point compilation (Tetko et al.), this text covers melting point for 55 molecules.

The conditions of the data set: a range is the spread between reports.

In general, melting point refers to the temperature, or range, at which the solid turns liquid. On to `NC(=O)C(F)(F)F`, for which the melting point lay in the range of 72.5 to 73 °C.
Next, `NC(=O)c1ccncc1`: 156 to 157 °C; `CC1(O)CCCCC1`: 25 to 26 °C.
`Clc1ccccc1`: the melting point is -46 to -45 °C.
The same measure for `c1ccc(-c2nnc(-c3ccccn3)nc2-c2ccccc2)cc1`: 191 to 192 °C.
As to `O=[N+]([O-])c1cccc(O)c1`, the melting point fell in the range of 94 to 98 °C.
For `NC(=O)c1ccc(F)cc1`, the melting point is 156 °C.
Take `CN(C)c1ccc([N+](=O)[O-])cc1`: the melting point is 164 to 165 °C.
Next, `C=CC(=O)O`: 12.5 to 13.5 °C.
Molecule `Oc1cccc(O)c1O` returned a melting point of 132 to 134 °C.
The same measure for `CC1(C(=O)O)CCCCC1`: 37.5 to 38 °C; for `O=[N+]([O-])c1cc(Cl)cc(Cl)c1`: 64 to 65.4 °C; for `CCCCCCS`: -81 to -80 °C.
Molecule `C=C(CC(=O)OC)C(=O)OC` had a melting point of 36 to 38 °C.
In turn, `CCS(=O)(=O)CC` displayed a melting point of 72 to 73.5 °C.
`Nc1ccc(Cl)c([N+](=O)[O-])c1` showed a melting point of 100 to 103 °C.
Next, `Cc1ccc(C(N)=O)cc1`: 159 to 163 °C; `c1ccc2c(c1)Oc1ccccc1S2`: 57 to 59.5 °C; `NNC(=O)c1ccccc1O`: 148 °C.
Next, `O=C(O)c1ccccc1C(F)(F)F`: 109 to 111 °C.
Take `C/C=C/C`: the melting point was -106 to -105 °C.
Next, `COc1ccc(I)cc1`: 50 to 53 °C.
The same measure for `c1c[nH]nn1`: 23 to 24 °C; for `CC(=O)c1ccc(O)cc1`: 107 to 110 °C.
Next, `CCC(C)(O)CC`: -24 to -23.6 °C; `CN(C)C(=O)Nc1ccccc1`: 132 to 134 °C.
`O=C(O)c1ccccc1I` displayed a melting point of 162 to 163 °C.
Consider `Cc1cc(C)c(Br)c(C)c1`, for which the melting point was -1 to 2 °C.
The same measure for `CCC(C)C(C)(C)C` (stereo not given): -112 °C.
Next, `Cc1cc(N)nc(C)n1`: 183 to 185 °C; `O=C(c1ccccc1)c1cccc(Br)c1`: 76 to 81 °C.
The same measure for `O=[N+]([O-])c1ccc(F)cc1`: 21 to 23 °C.
`Cc1ccc(-c2cc(C(F)(F)F)nn2-c2ccc(S(N)(=O)=O)cc2)cc1`: the melting point is 158 °C.
Next, `CCOC(=O)CCC(=O)OCC`: -21 to -20 °C; `CC(C)C(C)C(C)C`: -110 to -109 °C; `COc1cccc(CC(=O)O)c1`: 70 to 72 °C.
In turn, `CCC1(C2=CCCCC2)C(=O)NC(=O)NC1=O` displayed a melting point of 172 to 173 °C.
`CC(C)(C)C1=CC(=O)C=C(C(C)(C)C)C1=O` came in with a melting point of 66 to 67 °C.
The same measure for `c1ccc(NC2CCCCC2)cc1`: 15 to 16 °C; for `O=[N+]([O-])c1cccc2ccccc12`: 57 to 62 °C.
Next, `C=CC(=O)NC(C)(C)C`: 128 to 129 °C; `CCI`: -111 to -108 °C.
`Cc1cc(C)c(S(=O)(=O)Cl)c(C)c1` yielded a melting point of 55 to 56 °C.
Next, `CC1=C(/C=C/C(C)=C/C=C/C(C)=C/C=C/C=C(C)/C=C/C=C(C)/C=C/C2=C(C)CCCC2(C)C)C(C)(C)CCC1`: 178 to 183 °C; `C=CCCCCCC`: -102 °C.
`NNc1ccccc1` returned a melting point of 19 to 19.6 °C.
In turn, `CC(=O)Nc1ccc(Cl)cc1` had a melting point of 178 to 179 °C.
The molecule `Cc1c(C(=O)O)cnn1-c1ccccc1` yielded a melting point of 167 to 168 °C.
Take `O=Cc1cccc(O)c1`: the melting point lay within 104 to 108 °C.
Take `Oc1cccc(C(F)(F)F)c1`: the melting point is -2 to -1.8 °C.
The same measure for `COc1ccc(OC)c(C(C)=O)c1`: 19 to 20 °C; for `ClC(Cl)(Cl)Cl`: -23 to -22.9 °C.
Next, `Clc1ccccc1I`: 0.7 to 1 °C.
Next, `ClCCOCCCl`: -51.9 to -47 °C; `ClCC1CO1` (stereo not given): -57.2 to -57 °C.
